Results taken from US11464224B2, “Liquid spreading composition with ectoparasiticidal activity, a method and use thereof for combating ectoparasites in human and veterinary medicine, as well as in agricultural, horticultural and/or garden environments” (priority 2014, dated 2022).
Where two headings read alike, the source gives them in different places.

How the values were obtained:
[1] = Spreading test: 5 μl drop on glass plate, area covered after 30 min; assay type: physicochemical; settings: 25° C.
From the text: The following tests have been performed to measure and compare spreading properties of the composition prepared according to Example 1 (N) with Isopropyl Myristate (IPM) and Diethylene Glycol Monoethyl Ether (DGME), known from the state of art as spreading agents. All compositions acted as a carrier of an active insecticidal substance: clove oil (an insect repellent), S-Methoprene (biochemical pesticide interfering with an insect's lifecycle and preventing it from reaching maturity or reproducing) or Etofenprox (neurotoxic insecticide, which disturbs insect nervous systems).
Area (S) of the surface (cm^2) covered by the composition has been measured after 30 min. As an alternative spreading indicator one might also employ Emollient Skin Spreading Factor as defined by Croda (Croda DS-128, Emollient Skin Spreading Factor (1998)).
The following tests have been performed to measure and compare spreading properties of the composition prepared according to Example 1 with ectoparasiticidal compositions known from the state of art. As in the previous tests 5 μl drop of the composition has been applied in the middle of a glass plate at 25° C. Area of the surface (cm^2) covered by the composition has been measured after 30 min.

adult lice = settings: cited from earlier work

SMILES | S, area of the surface covered by the composition (active substance carriers) [1] | Mortality of adult lice (adult lice; concentration below 70% by weight) | Mortality of adult lice (adult lice; concentration of over 80% by weight)
CCOCCOCCO [compound 11, Diethylene Glycol Monoethyl Ether] | 0.6 cm^2 |  | 
CCCCCCCCCCCCCC(=O)OC(C)C [compound 10, Isopropyl Myristate] | 0.6 cm^2 | less than 20% | 100%
